Earlier results as cited in patent US6455086B1, “Microorganism reduction methods and compositions for food cleaning” (The Procter & Gamble Company, priority 1999, dated 2002).
Structures can show the parent of a compound that is named as a salt.

Columns and labels:
[1] = test system: typical Gram negative and positive bacteria, fungi and yeasts; conditions: used at a level from about 0.001% to about 0.5% by weight of the usage composition

Cn1sc2c(c1=O)CCC2 [Promexal, 2-methyl-4,5-trimethylene4-isothiazolin-3-one]
effectiveness against typical Gram negative and positive bacteria, fungi and yeasts [1]: effective

O=c1[nH]sc2ccccc12 [Proxel, 1,2-benzisothiazolin-3-one]
effectiveness against typical Gram negative and positive bacteria, fungi and yeasts [1]: effective

[H]/N=C(\N/C(=N/[H])NCCCCCCNC(=N)NC(=N)Nc1ccc(Cl)cc1)Nc1ccc(Cl)cc1 [chlorhexidine diacetate salt, 1,1′-hexamethylene bis(5-(p-chlorophenyl)biguanide)]
solubility in water: about 1.8%

[H]/N=C(\N/C(=N/[H])NCCCCCCNC(=N)NC(=N)Nc1ccc(Cl)cc1)Nc1ccc(Cl)cc1 [chlorhexidine digluconate salt, 1,1′-hexamethylene bis(5-(p-chlorophenyl)biguanide)]
solubility in water: about 70%
